Laboratory results as given in ChEMBL document CHEMBL6087475, “Current and Emerging Approaches Targeting G9a for the Treatment of Various Diseases” (J Med Chem, 2025).

Experiments:
[1] = biological target: DNA (cytosine-5)-methyltransferase 1 (Homo sapiens, UniProt P26358); test: Inhibition of DNMT1 (unknown origin)
[2] = biological target: T1, Histone-lysine N-methyltransferase EHMT2 (Homo sapiens, UniProt Q96KQ7); test: Inhibition of G9a (unknown origin)
T1 sequence (Q96KQ7 whole entry): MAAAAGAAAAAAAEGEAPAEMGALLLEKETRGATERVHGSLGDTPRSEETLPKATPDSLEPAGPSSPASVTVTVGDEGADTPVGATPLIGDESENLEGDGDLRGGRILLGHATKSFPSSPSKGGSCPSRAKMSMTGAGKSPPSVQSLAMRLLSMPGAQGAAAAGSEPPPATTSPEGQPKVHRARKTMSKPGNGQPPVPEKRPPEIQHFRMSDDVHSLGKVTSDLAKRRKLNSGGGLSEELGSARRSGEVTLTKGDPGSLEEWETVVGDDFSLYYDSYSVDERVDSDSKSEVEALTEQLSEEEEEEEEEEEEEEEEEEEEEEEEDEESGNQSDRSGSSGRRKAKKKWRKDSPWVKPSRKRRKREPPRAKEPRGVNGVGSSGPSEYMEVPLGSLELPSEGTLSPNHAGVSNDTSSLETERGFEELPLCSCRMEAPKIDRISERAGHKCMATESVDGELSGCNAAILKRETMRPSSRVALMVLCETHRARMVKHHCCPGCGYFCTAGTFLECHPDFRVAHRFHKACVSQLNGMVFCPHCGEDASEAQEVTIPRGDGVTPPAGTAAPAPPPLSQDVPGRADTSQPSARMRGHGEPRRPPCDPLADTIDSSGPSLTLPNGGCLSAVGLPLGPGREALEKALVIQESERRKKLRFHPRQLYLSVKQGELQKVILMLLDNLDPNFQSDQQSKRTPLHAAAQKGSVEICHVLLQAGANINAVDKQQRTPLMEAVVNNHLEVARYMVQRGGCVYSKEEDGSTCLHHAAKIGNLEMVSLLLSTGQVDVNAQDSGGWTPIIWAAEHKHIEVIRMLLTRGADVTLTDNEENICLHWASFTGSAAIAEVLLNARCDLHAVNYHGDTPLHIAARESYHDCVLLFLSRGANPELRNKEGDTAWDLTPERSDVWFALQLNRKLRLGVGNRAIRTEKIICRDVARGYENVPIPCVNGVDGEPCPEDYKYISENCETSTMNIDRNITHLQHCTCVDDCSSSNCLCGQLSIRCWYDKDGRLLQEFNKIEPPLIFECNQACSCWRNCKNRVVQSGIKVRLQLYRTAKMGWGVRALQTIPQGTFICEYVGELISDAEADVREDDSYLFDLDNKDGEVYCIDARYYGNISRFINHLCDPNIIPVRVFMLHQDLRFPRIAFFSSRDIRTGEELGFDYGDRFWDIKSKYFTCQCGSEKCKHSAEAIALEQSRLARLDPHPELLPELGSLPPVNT

K562 = test: Antiproliferative activity against human K562 cells assessed as reduction in cell growth measured after 72 hrs by MTT assay; assay type: functional, cell-based; conditions: K562, 72 h
[3] = biological target: von Hippel-Lindau disease tumor suppressor/Histone-lysine N-methyltransferase EHMT2 (Homo sapiens, UniProt Q96KQ7+P40337); test: PROTAC activity at G9a/VHL in human 22Rv1 cells assessed as induction of G9a degradation at 1 uM incubated for 24 hrs by Western blot analysis; assay type: cell-based
[4] = biological target: von Hippel-Lindau disease tumor suppressor/Histone-lysine N-methyltransferase EHMT1 (Homo sapiens, UniProt Q9H9B1+P40337); test: PROTAC activity at GLP/VHL in human 22Rv1 cells assessed as induction of GLP degradation at 1 uM incubated for 24 hrs by Western blot analysis; assay type: cell-based
[5] = Cmax in mouse at 25 mg/kg, ip; assay type: ADME, organism-based; conditions: in vivo
PANC-1 = test: Antiproliferative activity against human PANC-1 cells assessed as reduction in cell growth incubated for 24 hrs by MTT assay; assay type: functional, cell-based; conditions: PANC-1, 24 h
MCF7 = test: Antiproliferative activity against human MCF7 cells assessed as reduction in cell growth measured after 72 hrs by MTT assay; assay type: functional, cell-based; conditions: MCF7, 72 h
A549 = test: Antiproliferative activity against human A549 cells assessed as reduction in cell viability measured after 72 hrs by MTT assay; assay type: functional, cell-based; conditions: A549, 72 h
[6] = biological target: T2, Histone-lysine N-methyltransferase EHMT1/EHMT2 (Homo sapiens, UniProt Q9H9B1+Q96KQ7); test: Inhibition of G9a/GLP in human MDA-MB-231 cells assessed as reduction in H3K9 dimethylation incubated for 3 days by Western blotting analysis; assay type: cell-based
T2 sequence (Q9H9B1 whole entry): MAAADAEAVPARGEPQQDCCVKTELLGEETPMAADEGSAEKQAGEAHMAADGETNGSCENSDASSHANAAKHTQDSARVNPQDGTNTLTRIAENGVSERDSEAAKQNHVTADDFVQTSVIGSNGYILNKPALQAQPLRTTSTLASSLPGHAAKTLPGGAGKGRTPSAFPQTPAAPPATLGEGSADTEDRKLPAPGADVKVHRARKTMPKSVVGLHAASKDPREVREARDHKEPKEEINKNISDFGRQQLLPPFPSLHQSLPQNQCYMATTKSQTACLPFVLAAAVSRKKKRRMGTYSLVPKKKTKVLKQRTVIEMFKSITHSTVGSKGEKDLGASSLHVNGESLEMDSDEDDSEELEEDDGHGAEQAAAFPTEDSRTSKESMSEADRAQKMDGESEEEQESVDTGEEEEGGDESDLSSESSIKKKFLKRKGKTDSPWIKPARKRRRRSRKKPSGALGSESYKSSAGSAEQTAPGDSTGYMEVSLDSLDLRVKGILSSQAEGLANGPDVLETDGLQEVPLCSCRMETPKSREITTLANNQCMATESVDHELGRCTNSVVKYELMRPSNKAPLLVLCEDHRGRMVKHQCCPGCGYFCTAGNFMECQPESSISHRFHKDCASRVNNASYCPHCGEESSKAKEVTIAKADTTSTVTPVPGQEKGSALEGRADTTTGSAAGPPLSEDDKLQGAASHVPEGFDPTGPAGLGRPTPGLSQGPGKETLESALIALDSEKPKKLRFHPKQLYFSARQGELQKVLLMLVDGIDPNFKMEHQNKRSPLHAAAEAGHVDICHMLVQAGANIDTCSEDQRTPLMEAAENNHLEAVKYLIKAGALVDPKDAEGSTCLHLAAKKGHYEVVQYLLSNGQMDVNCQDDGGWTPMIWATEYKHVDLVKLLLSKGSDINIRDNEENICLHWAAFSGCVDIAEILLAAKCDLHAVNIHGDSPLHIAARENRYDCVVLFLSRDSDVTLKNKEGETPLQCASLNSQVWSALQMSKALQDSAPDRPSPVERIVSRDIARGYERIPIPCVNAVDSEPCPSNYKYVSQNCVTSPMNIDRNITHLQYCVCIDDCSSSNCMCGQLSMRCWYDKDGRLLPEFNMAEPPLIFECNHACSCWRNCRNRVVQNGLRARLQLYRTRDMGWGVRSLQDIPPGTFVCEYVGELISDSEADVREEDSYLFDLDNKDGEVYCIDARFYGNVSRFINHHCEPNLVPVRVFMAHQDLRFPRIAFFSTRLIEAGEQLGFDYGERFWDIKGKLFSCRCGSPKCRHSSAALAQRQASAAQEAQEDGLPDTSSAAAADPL
T2 sequence (Q96KQ7 whole entry): T1 sequence (Q96KQ7 whole entry)

Chain of DNA (cytosine-5)-methyltransferase 1 (P26358 whole entry): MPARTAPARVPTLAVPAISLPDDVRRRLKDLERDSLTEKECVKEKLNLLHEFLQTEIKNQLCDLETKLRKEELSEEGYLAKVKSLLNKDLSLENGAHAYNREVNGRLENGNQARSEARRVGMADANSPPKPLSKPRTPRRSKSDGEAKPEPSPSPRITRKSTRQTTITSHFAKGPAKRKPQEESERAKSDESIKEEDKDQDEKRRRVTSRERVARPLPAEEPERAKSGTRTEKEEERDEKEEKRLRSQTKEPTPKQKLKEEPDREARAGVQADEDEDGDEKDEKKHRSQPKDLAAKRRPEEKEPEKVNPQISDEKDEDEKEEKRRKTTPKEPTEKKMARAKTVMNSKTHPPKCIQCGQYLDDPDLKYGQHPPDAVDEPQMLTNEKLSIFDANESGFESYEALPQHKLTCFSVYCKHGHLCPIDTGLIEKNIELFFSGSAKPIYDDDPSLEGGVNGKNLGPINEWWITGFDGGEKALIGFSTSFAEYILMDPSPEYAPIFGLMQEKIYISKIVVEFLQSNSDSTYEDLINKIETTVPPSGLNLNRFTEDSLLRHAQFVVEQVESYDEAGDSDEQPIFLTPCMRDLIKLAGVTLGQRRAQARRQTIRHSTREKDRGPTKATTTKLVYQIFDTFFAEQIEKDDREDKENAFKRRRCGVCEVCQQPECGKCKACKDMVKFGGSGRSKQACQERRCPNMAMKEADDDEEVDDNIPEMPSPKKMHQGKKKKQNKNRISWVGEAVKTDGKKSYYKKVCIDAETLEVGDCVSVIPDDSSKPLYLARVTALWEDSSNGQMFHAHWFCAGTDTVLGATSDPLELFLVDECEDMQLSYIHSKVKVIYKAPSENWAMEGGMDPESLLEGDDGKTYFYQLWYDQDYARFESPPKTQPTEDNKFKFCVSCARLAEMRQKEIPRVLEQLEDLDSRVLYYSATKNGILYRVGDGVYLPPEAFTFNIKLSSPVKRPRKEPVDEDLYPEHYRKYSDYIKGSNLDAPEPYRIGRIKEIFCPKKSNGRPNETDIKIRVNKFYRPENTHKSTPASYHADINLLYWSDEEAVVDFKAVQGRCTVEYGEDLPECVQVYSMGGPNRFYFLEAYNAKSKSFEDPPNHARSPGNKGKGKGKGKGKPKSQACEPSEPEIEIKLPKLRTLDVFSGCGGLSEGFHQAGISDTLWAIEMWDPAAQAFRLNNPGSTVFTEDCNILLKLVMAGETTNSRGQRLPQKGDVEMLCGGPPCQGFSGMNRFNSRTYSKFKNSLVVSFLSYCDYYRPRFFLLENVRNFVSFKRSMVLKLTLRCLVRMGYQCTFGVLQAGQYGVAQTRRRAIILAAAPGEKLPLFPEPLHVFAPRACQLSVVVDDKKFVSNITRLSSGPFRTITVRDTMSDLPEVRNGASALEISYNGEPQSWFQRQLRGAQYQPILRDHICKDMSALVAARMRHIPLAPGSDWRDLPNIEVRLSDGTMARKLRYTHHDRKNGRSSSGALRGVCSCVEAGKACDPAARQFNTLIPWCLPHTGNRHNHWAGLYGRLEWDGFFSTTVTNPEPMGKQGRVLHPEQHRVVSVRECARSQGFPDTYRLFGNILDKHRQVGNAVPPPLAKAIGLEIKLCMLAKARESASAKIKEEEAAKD
Chain of von Hippel-Lindau disease tumor suppressor/Histone-lysine N-methyltransferase EHMT1 (P40337 whole entry, one chain of several): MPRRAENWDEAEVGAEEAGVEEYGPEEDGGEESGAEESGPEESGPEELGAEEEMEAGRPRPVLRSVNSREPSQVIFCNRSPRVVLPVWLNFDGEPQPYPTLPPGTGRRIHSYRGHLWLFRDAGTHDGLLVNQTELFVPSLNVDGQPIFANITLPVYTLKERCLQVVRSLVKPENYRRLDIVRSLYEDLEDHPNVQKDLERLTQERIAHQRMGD
Chain of von Hippel-Lindau disease tumor suppressor/Histone-lysine N-methyltransferase EHMT2 (P40337 whole entry, one chain of several): as above

IC50 [1] [µM]	IC50 [2] [µM]	SMILES	other results
–	0.013	COc1cc2nc(N3CCOCC3)nc(NC3CCN(C)CC3)c2cc1OC	–
–	0.126	COc1cc2c(C3CCOCC3)nc(N)nc2cc1OCCCN1CCCC1	–

The remaining lines, values behind:

SMILES	IC50 [1] [µM]	IC50 [2] [µM]	other results
Cc1ccc(SS(=O)(=O)c2ccc(C)cc2)cc1	3.06	–	–
CCOc1ccc(Nc2cc(C)nc3ccc(Cl)cc23)cc1	–	0.067	–
CN(C)C(=O)Nc1ccc(CN2CCC(C(O)(c3ccc(C(F)(F)F)cc3)c3ccc(C(F)(F)F)cc3)CC2)cc1	6.5	–	IC50 (K562): 1.7 µM
COc1cc2c(NC3CCN(CCCC(=O)NCCCCCCCCNc4cccc5c4C(=O)N(C4CCC(=O)NC4=O)C5=O)CC3)nc(C3CCCCC3)nc2cc1OCCCN1CCCC1 (configuration not stated)	–	–	DC50 [3]: 0.1 µM; DC50 [4]: > 10 µM
Cc1c(C(=O)N[C@@H](CCC2CC2)C(=O)Nc2ccc(C#N)cc2)[nH]c2c1C(=O)CC(C)(C)C2	0.027	–	Cmax [5]: 42.4 µM
COC(=O)c1ccc2c(c1)nc(NC(=O)c1ccccc1)n2CCCc1ccccc1	–	–	EC50 (PANC-1): 5 µM
COc1ccc2c(NC3CCN(Cc4ccccc4)CC3)nc(NCCNC(=O)CCCCC(=O)NO)nc2c1	–	–	EC50 (MCF7): 37.4 µM; EC50 (A549): 36.2 µM; IC50 [6]: 7.136 µM
CCN(c1cc(-c2ccc(CN3CCOCC3)cc2)cc(C(=O)NCc2c(C)cc(C)[nH]c2=O)c1C)C1CCOCC1 [TAZEMETOSTAT]	–	0.0029	–
CCN1C[C@H](NC(=O)c2cc3cc(Cl)ccc3[nH]2)[C@@H](OC)C1	0.0018	–	–
COc1cc2c(cc1OC)-c1c(C)c3cc(OC)c(OC)cc3c[n+]1CC2	16.3	–	–
